The values that follow come from patent US20040001827A1, “Serum albumin binding peptides for tumor targeting” (priority 2002, published 2004).

Read-outs that look alike come from different tables or passages of the source. Where a SMILES comes first, the peptide text is derived from it. Bridges are numbered along the chain shown (N, C = ends).

In this assay the target is T1, rabbit albumin (Oryctolagus cuniculus, UniProt P49065).
T1 construct: purchased Sigma, St. Louis Mo
Description: SA08b binding (peptide competition) assay, rabbit albumin. Particulars: for improvement in IC50 relative to core sequence (SA34 and SA19): rabbit albumin. From the text:
Plates were blocked as described above.
Peptides corresponding to identified phage sequences were synthesized and their affinity for rat, rabbit or mouse albumin measured using the SA08b binding assay.

One may read the IC50 as the concentration at which inhibition is half-maximal.

T1 sequence (P49065 25-608): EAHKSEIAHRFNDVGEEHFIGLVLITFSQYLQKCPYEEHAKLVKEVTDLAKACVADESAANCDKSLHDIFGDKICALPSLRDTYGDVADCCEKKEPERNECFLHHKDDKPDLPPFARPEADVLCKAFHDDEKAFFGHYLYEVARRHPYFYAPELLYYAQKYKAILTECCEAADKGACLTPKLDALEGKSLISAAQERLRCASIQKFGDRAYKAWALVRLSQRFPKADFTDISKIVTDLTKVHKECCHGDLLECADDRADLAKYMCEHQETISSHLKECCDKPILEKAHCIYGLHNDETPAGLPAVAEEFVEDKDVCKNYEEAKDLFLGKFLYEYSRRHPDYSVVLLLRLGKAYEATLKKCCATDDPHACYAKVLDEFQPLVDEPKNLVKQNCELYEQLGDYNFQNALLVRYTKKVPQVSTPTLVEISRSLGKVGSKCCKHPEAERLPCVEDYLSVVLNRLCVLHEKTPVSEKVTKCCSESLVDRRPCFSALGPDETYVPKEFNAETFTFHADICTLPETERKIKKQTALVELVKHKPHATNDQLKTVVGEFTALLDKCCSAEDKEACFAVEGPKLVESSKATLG

As to `CC[C@H](C)[C@H](NC(=O)[C@H](CC(C)C)NC(=O)[C@H](CCCNC(=N)N)NC(C)=O)C(=O)N[C@@H](CCC(=O)O)C(=O)N[C@@H](CC(=O)O)C(=O)N[C@H](C(=O)N[C@H]1CSSC[C@@H](C(=O)N[C@@H](CC(C)C)C(=O)N[C@@H](Cc2c[nH]c3ccccc23)C(=O)N[C@@H](CCC(=O)O)C(=O)N[C@@H](CC(=O)O)C(N)=O)NC(=O)CNC(=O)[C@H](Cc2c[nH]c3ccccc23)NC(=O)[C@H](CCCNC(=N)N)NC(=O)[C@@H]2CCCN2C(=O)[C@H](CC(C)C)NC1=O)[C@@H](C)CC` [SA22] (Ac-RLIEDICLPRWGCLWED-NH2; disulfide 7-13), the “improvement in IC50 relative to core sequence (SA34 and SA19)” value is on record as 60 fold.

For `CC[C@H](C)[C@H](NC(=O)[C@H](CC(=O)O)NC(C)=O)C(=O)N[C@H]1CSSC[C@@H](C(=O)N[C@@H](CC(C)C)C(=O)N[C@@H](Cc2c[nH]c3ccccc23)C(=O)N[C@@H](CCC(=O)O)C(=O)N[C@@H](CC(=O)O)C(N)=O)NC(=O)CNC(=O)[C@H](Cc2c[nH]c3ccccc23)NC(=O)[C@H](CCCNC(=N)N)NC(=O)[C@@H]2CCCN2C(=O)[C@H](CC(C)C)NC1=O` [SA26] (Ac-DICLPRWGCLWED-NH2; disulfide 3-9), the “improvement in IC50 relative to core sequence (SA34 and SA19)” value is “about 8.6 fold”.

`CC(=O)N[C@H]1CSSC[C@@H](C(=O)N[C@@H](CC(C)C)C(=O)N[C@@H](Cc2c[nH]c3ccccc23)C(=O)N[C@@H](CCC(=O)O)C(=O)N[C@@H](CC(=O)O)C(N)=O)NC(=O)CNC(=O)[C@H](Cc2c[nH]c3ccccc23)NC(=O)[C@H](CCCNC(=N)N)NC(=O)[C@@H]2CCCN2C(=O)[C@H](CC(C)C)NC1=O` [SA28] (Ac-CLPRWGCLWED-NH2; disulfide 1-7) registered an IC50 of more than 400 µM.

Take `CC[C@H](C)[C@H](NC(=O)[C@H](CC(C)C)NC(=O)[C@H](CCCNC(=N)N)NC(C)=O)C(=O)N[C@@H](CCC(=O)O)C(=O)N[C@@H](CC(=O)O)C(=O)N[C@H](C(=O)N[C@H]1CSSC[C@@H](C(=O)N[C@@H](CC(C)C)C(N)=O)NC(=O)CNC(=O)[C@H](Cc2c[nH]c3ccccc23)NC(=O)[C@H](CCCNC(=N)N)NC(=O)[C@@H]2CCCN2C(=O)[C@H](CC(C)C)NC1=O)[C@@H](C)CC` [SA33] (Ac-RLIEDICLPRWGCL-NH2; disulfide 7-13): the “improvement in IC50 relative to core sequence (SA34 and SA19)” value was “approximately 6 fold”.

`CC[C@H](C)[C@H](NC(=O)[C@H](CC(=O)O)NC(C)=O)C(=O)N[C@H]1CSSC[C@@H](C(=O)N[C@@H](CC(C)C)C(N)=O)NC(=O)CNC(=O)[C@H](Cc2c[nH]c3ccccc23)NC(=O)[C@H](CCCNC(=N)N)NC(=O)[C@@H]2CCCN2C(=O)[C@H](CC(C)C)NC1=O` [SA34] (Ac-DICLPRWGCL-NH2; disulfide 3-9) came in with an IC50 of approximately 25 µM.

Turning to `CC[C@H](C)[C@H](NC(C)=O)C(=O)N[C@H]1CSSC[C@@H](C(N)=O)NC(=O)CNC(=O)[C@H](Cc2c[nH]c3ccccc23)NC(=O)[C@H](CCCNC(=N)N)NC(=O)[C@@H]2CCCN2C(=O)[C@H](CC(C)C)NC1=O` [SA36] (Ac-ICLPRWGC-NH2; disulfide 2-8), the half-maximal inhibitory concentration (IC50) (Table 9, rabbit albumin, peptide truncation series, read-out: IC50) is more than 250 µM.
